{"source": "patent US7354955B2", "about": "“(2S)-amino(phenyl)acetic acid and derivatives as α2δ voltage-gated calcium channel ligands” (Abbott Laboratories, priority 2004, dated 2008)", "key": {"[1]": {"test_system": "mechanical allodynia in rats that had undergone spinal nerve ligation", "assay": "Analgesic effect: mechanical allodynia (von Frey) after L5/L6 spinal nerve ligation", "conditions": "oral, 60 minutes before von Frey testing; percentage of maximal protective effect relative to vehicle; Sprague Dawley rats"}, "gabapentin binding site": {"test_system": "gabapentin binding site", "conditions": "cited from earlier work"}, "[2]": {"conditions": "anti-convulsant drugs, background statement"}}, "note": "Where two headings read alike, the source gives them in different places.", "data": [{"molecule": "N[C@H](C(=O)O)c1ccccc1", "note": "[(2S)-amino(phenyl)acetic acid]", "values": [{"measurement": "EC50", "setting": "[1]", "result": 50, "unit": "µmol/kg"}]}, {"molecule": "NCC1(CC(=O)O)CCCCC1", "note": "[Gabapentin]", "values": [{"measurement": "EC50", "setting": "[1]", "result": 160, "unit": "µmol/kg"}]}, {"molecule": "C[C@]12N[C@H](Cc3ccccc31)c1ccccc12", "note": "[MK801]", "values": [{"measurement": "interaction with the gabapentin binding site", "setting": "gabapentin binding site", "result": "do not interact"}]}, {"molecule": "Cn1c(=O)c2c(ncn2C)n(C)c1=O", "note": "[caffeine]", "values": [{"measurement": "interaction with the gabapentin binding site", "setting": "gabapentin binding site; ligands for other calcium channel subtypes, background statement", "result": "do not interact"}]}, {"molecule": "COc1cc(CNC(=O)CCCC/C=C/C(C)C)ccc1O", "note": "[capsaisin]", "values": [{"measurement": "interaction with the gabapentin binding site", "setting": "gabapentin binding site", "result": "do not interact"}]}, {"molecule": "NC(=O)N1c2ccccc2C=Cc2ccccc21", "note": "[carbamazepine]", "values": [{"measurement": "competition for gabapentin binding", "setting": "gabapentin binding site; [2]", "result": "do not compete"}]}, {"molecule": "CN1C(=O)CN=C(c2ccccc2)c2cc(Cl)ccc21", "note": "[diazepam]", "values": [{"measurement": "competition for gabapentin binding", "setting": "gabapentin binding site", "result": "do not compete"}]}, {"molecule": "CCC1(c2ccccc2)C(=O)NC(=O)NC1=O", "note": "[phenobarbitone]", "values": [{"measurement": "competition for gabapentin binding", "setting": "gabapentin binding site", "result": "do not compete"}]}, {"molecule": "O=C1NC(=O)C(c2ccccc2)(c2ccccc2)N1", "note": "[phenytoin]", "values": [{"measurement": "competition for gabapentin binding", "setting": "gabapentin binding site; [2]", "result": "do not compete"}]}, {"molecule": "COc1ccc(CCN(C)CCCC(C#N)(c2ccc(OC)c(OC)c2)C(C)C)cc1OC", "note": "(centres unmarked) [verapamil]", "values": [{"measurement": "interaction with the gabapentin binding site", "setting": "gabapentin binding site", "result": "do not interact"}]}, {"molecule": "ryanodine", "values": [{"measurement": "interaction with the gabapentin binding site", "setting": "gabapentin binding site", "result": "do not interact"}]}]}
